Columns and labels:
Settings in all cases: incubation time: 72 h
BT-549 [1] = assay: normalised viability (% of control), CellTiter-Blue; higher = more viable cells (100 = DMSO, 0 = benzethonium chloride kill control)
Description: (§1)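 DSRT, CellTiter-Blue viability, 72 h incubation. Signal is normalised to DMSO and benzethonium chloride controls. Value is the normalised response at dose 1.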

HCC1599 [2] = assay: as above
Description: as §1

HCC1143 [3] = assay: as above
Description: as §1

Hs578T [4] = assay: as above
Description: as §1

BT-474 [5] = assay: as above
Description: as §1

MFM-223 [6] = assay: as above
Description: as §1

MDA-MB-468 [7] = assay: as above
Description: as §1

CAL-120 [8] = assay: as above
Description: as §1

HCC1937 [9] = assay: as above
Description: as §1

MDA-MB-453 [10] = assay: as above
Description: as §1

CAL-51 [11] = assay: as above
Description: as §1

SK-BR-3 [12] = assay: as above
Description: as §1

DU-4475 [13] = assay: as above
Description: as §1

MDA-MB-231 [14] = assay: as above
Description: as §1

MDA-MB-436 [15] = assay: as above
Description: as §1

CAL-148 [16] = assay: as above
Description: as §1

HDQ-P1 [17] = assay: as above
Description: as §1

CAL-85-1 [18] = assay: as above
Description: as §1

MCF-10A = assay: normalised response (% of control), CellTiter-Glo; higher = more viable cells (100 = DMSO, 0 = benzethonium chloride kill control)
Procedure, shortened: (§2)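 After 72 h with compound in 384-well plates, breast cancer cell lines seeded as 20 µl suspension were read for CellTox Green fluorescence at 485/520 nm. CellTiter-Glo luminescence was then read after 10 min at room temperature. Compound was present at 5 concentrations in 10-fold steps over a 10,000-fold range set per compound, and plates were normalised to 0.1 % DMSO (100) and a positive kill control (0). Values are normalised signals, each at a single concentration.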

BT-549 [19] = assay: as above
Procedure, shortened: as §2

HCC1599 [20] = assay: as above
Procedure, shortened: as §2

HCC1143 [21] = assay: as above
Procedure, shortened: as §2

Hs578T [22] = assay: as above
Procedure, shortened: as §2

BT-474 [23] = assay: as above
Procedure, shortened: as §2

MFM-223 [24] = assay: as above
Procedure, shortened: as §2

MDA-MB-468 [25] = assay: as above
Procedure, shortened: as §2

CAL-120 [26] = assay: as above
Procedure, shortened: as §2

HCC1937 [27] = assay: as above
Procedure, shortened: as §2

MDA-MB-453 [28] = assay: as above
Procedure, shortened: as §2

CAL-51 [29] = assay: as above
Procedure, shortened: as §2

SK-BR-3 [30] = assay: as above
Procedure, shortened: as §2

DU-4475 [31] = assay: as above
Procedure, shortened: as §2

MDA-MB-231 [32] = assay: as above
Procedure, shortened: as §2

MDA-MB-436 [33] = assay: as above
Procedure, shortened: as §2

CAL-148 [34] = assay: as above
Procedure, shortened: as §2

HDQ-P1 [35] = assay: as above
Procedure, shortened: as §2

CAL-85-1 [36] = assay: as above
Procedure, shortened: as §2

SMILES: CN(Cc1cnc2nc(N)nc(N)c2n1)c1ccc(C(=O)N[C@@H](CCC(=O)O)C(=O)O)cc1 [Methotrexate] (1 nM)
- normalised viability (BT-549 [1]): 92.2%
- normalised viability (HCC1599 [2]): 93.6%
- normalised viability (HCC1143 [3]): 95.6%
- normalised viability (Hs578T [4]): 130%
- normalised viability (BT-474 [5]): 101%
- normalised viability (MFM-223 [6]): 99.9%
- normalised viability (MDA-MB-468 [7]): 93%
- normalised viability (CAL-120 [8]): 90.5%
- normalised viability (HCC1937 [9]): 84.6%
- normalised viability (MDA-MB-453 [10]): 101%
- normalised viability (CAL-51 [11]): 106%
- normalised viability (SK-BR-3 [12]): 88.7%
- normalised viability (DU-4475 [13]): 114%
- normalised viability (MDA-MB-231 [14]): 93.5%
- normalised viability (MDA-MB-436 [15]): 109%
- normalised viability (CAL-148 [16]): 110%
- normalised viability (HDQ-P1 [17]): 114%
- normalised viability (CAL-85-1 [18]): 95.9%

SMILES: COc1ccc(S(=O)(=O)Nc2cccnc2Nc2ccc(O)cc2)cc1 [ABT-751] (1 nM)
- normalised response (MCF-10A): 91.5%
- normalised response (BT-549 [19]): 109%
- normalised response (HCC1599 [20]): 95.8%
- normalised response (HCC1143 [21]): 96.1%
- normalised response (Hs578T [22]): 101%
- normalised response (BT-474 [23]): 98.9%
- normalised response (MFM-223 [24]): 93.9%
- normalised response (MDA-MB-468 [25]): 98.4%
- normalised response (CAL-120 [26]): 95.8%
- normalised response (HCC1937 [27]): 96.5%
- normalised response (MDA-MB-453 [28]): 95.2%
- normalised response (CAL-51 [29]): 108%
- normalised response (SK-BR-3 [30]): 84.4%
- normalised response (DU-4475 [31]): 103%
- normalised response (MDA-MB-231 [32]): 104%
- normalised response (MDA-MB-436 [33]): 93%
- normalised response (CAL-148 [34]): 97.6%
- normalised response (HDQ-P1 [35]): 96.8%
- normalised response (CAL-85-1 [36]): 94.6%
- normalised viability (BT-549 [1]): 110%
- normalised viability (HCC1599 [2]): 90%
- normalised viability (HCC1143 [3]): 95.5%
- normalised viability (Hs578T [4]): 105%
- normalised viability (BT-474 [5]): 100%
- normalised viability (MFM-223 [6]): 92.1%
- normalised viability (MDA-MB-468 [7]): 102%
- normalised viability (CAL-120 [8]): 84.7%
- normalised viability (HCC1937 [9]): 90.3%
- normalised viability (MDA-MB-453 [10]): 90.5%
- normalised viability (CAL-51 [11]): 109%
- normalised viability (SK-BR-3 [12]): 87.2%
- normalised viability (DU-4475 [13]): 96.5%
- normalised viability (MDA-MB-231 [14]): 95.8%
- normalised viability (MDA-MB-436 [15]): 85.8%
- normalised viability (CAL-148 [16]): 96.9%
- normalised viability (HDQ-P1 [17]): 114%
- normalised viability (CAL-85-1 [18]): 88.4%

SMILES: CC1(C)CCC(c2ccc(Cl)cc2)=C(CN2CCN(c3ccc(C(=O)NS(=O)(=O)c4ccc(N[C@H](CCN5CCOCC5)CSc5ccccc5)c(S(=O)(=O)C(F)(F)F)c4)cc3)CC2)C1 [Navitoclax] (1 nM)
- normalised response (MCF-10A): 93.5%
- normalised response (BT-549 [19]): 102%
- normalised response (HCC1599 [20]): 98.6%
- normalised response (HCC1143 [21]): 88.7%
- normalised response (Hs578T [22]): 97.6%
- normalised response (BT-474 [23]): 95.7%
- normalised response (MFM-223 [24]): 93.8%
- normalised response (MDA-MB-468 [25]): 95.1%
- normalised response (CAL-120 [26]): 94%
- normalised response (HCC1937 [27]): 98.2%
- normalised response (MDA-MB-453 [28]): 94.4%
- normalised response (CAL-51 [29]): 74.1%
- normalised response (SK-BR-3 [30]): 92.4%
- normalised response (DU-4475 [31]): 101%
- normalised response (MDA-MB-231 [32]): 99.2%
- normalised response (MDA-MB-436 [33]): 95.6%
- normalised response (CAL-148 [34]): 90.3%
- normalised response (HDQ-P1 [35]): 106%
- normalised response (CAL-85-1 [36]): 91.8%
- normalised viability (BT-549 [1]): 103%
- normalised viability (HCC1599 [2]): 90.9%
- normalised viability (HCC1143 [3]): 81.6%
- normalised viability (Hs578T [4]): 99.2%
- normalised viability (BT-474 [5]): 88.9%
- normalised viability (MFM-223 [6]): 69.9%
- normalised viability (MDA-MB-468 [7]): 90.2%
- normalised viability (CAL-120 [8]): 73.8%
- normalised viability (HCC1937 [9]): 88.2%
- normalised viability (MDA-MB-453 [10]): 83.4%
- normalised viability (CAL-51 [11]): 109%
- normalised viability (SK-BR-3 [12]): 78.4%
- normalised viability (DU-4475 [13]): 88.6%
- normalised viability (MDA-MB-231 [14]): 84.6%
- normalised viability (MDA-MB-436 [15]): 59.8%
- normalised viability (CAL-148 [16]): 99.2%
- normalised viability (HDQ-P1 [17]): 67%
- normalised viability (CAL-85-1 [18]): 79.1%

SMILES: CO[C@@H]1[C@H](N(C)C(=O)c2ccccc2)C[C@H]2O[C@]1(C)n1c3ccccc3c3c4c(c5c6ccccc6n2c5c31)C(=O)NC4 [Midostaurin] (1 nM)
- normalised response (MCF-10A): 93.4%
- normalised response (BT-549 [19]): 101%
- normalised response (HCC1599 [20]): 109%
- normalised response (HCC1143 [21]): 101%
- normalised response (Hs578T [22]): 96.8%
- normalised response (BT-474 [23]): 97.3%
- normalised response (MFM-223 [24]): 100%
- normalised response (MDA-MB-468 [25]): 106%
- normalised response (CAL-120 [26]): 97.2%
- normalised response (HCC1937 [27]): 93.5%
- normalised response (MDA-MB-453 [28]): 92.5%
- normalised response (CAL-51 [29]): 104%
- normalised response (SK-BR-3 [30]): 102%
- normalised response (DU-4475 [31]): 94%
- normalised response (MDA-MB-231 [32]): 107%
- normalised response (MDA-MB-436 [33]): 83%
- normalised response (CAL-148 [34]): 103%
- normalised response (HDQ-P1 [35]): 91.2%
- normalised response (CAL-85-1 [36]): 104%
- normalised viability (BT-549 [1]): 104%
- normalised viability (HCC1599 [2]): 94.2%
- normalised viability (HCC1143 [3]): 129%
- normalised viability (Hs578T [4]): 104%
- normalised viability (BT-474 [5]): 99.7%
- normalised viability (MFM-223 [6]): 108%
- normalised viability (MDA-MB-468 [7]): 99.5%
- normalised viability (CAL-120 [8]): 113%
- normalised viability (HCC1937 [9]): 132%
- normalised viability (MDA-MB-453 [10]): 94.3%
- normalised viability (CAL-51 [11]): 96.4%
- normalised viability (SK-BR-3 [12]): 109%
- normalised viability (DU-4475 [13]): 100%
- normalised viability (MDA-MB-231 [14]): 95.3%
- normalised viability (MDA-MB-436 [15]): 98.2%
- normalised viability (CAL-148 [16]): 119%
- normalised viability (HDQ-P1 [17]): 108%
- normalised viability (CAL-85-1 [18]): 112%
